Data reported in publication PMC9750858, “Rapid biosensor development using plant hormone receptors as reprogrammable scaffolds” (Nature Biotechnology, 2022).
Numbering of substitutions follows the chain as printed.

Columns and labels:
PYR1^DIAZI / HAB1 = biological target: T1, PYR1^DIAZI / HAB1 (Arabidopsis thaliana, UniProt O49686, A160V/E8G/F108Y/F159G/L87M/M158V/V81Y); assay: Ligand/receptor-mediated PP2C (HAB1 phosphatase) inhibition, PYR1^DIAZI; type: biochemical
T1 construct: made in house
T1 sequence (O49686 with tags, fused parts or gaps E8G/V81Y/L87M/F108Y/M158V/F159G/A160V): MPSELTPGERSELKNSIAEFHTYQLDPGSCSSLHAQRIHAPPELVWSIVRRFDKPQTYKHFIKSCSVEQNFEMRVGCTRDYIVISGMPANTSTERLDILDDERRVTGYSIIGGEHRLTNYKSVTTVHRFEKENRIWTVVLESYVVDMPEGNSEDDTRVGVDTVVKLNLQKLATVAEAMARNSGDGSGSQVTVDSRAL

PYR1^PIRI / HAB1 = biological target: T2, PYR1^PIRI / HAB1 (Arabidopsis thaliana, UniProt O49686, A160T/E130G/F159T/K59R/N119S/S122Q/S92M/V174A); assay: Ligand/receptor-mediated PP2C (HAB1 phosphatase) inhibition, PYR1^PIRI; type: biochemical; conditions: HAB1 inhibition and Y2H assays
T2 construct: made in house
T2 sequence (O49686 with tags, fused parts or gaps K59R/S92M/N119S/S122Q/E130G/F159T/A160T/V174A): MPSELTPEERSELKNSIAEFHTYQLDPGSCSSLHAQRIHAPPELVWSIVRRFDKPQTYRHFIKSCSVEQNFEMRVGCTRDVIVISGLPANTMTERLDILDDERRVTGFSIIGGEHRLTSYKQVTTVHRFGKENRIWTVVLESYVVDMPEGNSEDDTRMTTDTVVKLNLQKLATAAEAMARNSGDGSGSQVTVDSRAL

PYR1^DIAZI [1] = biological target: T3, PYR1^DIAZI (Arabidopsis thaliana, UniProt O49686, A160V/E8G/F108Y/F159G/L87M/M158V/V81Y); assay: Split NanoLuc luciferase complementation in yeast, NLuc^N-PYR1^DIAZI/NLuc^C-HAB1; type: cell-based; design: >PYR1-DIAZI; expressed in transfected cells; host or cells: Saccharomyces cerevisiae BY4742
T3 sequence (Q9CAJ0 179-511, one chain of several): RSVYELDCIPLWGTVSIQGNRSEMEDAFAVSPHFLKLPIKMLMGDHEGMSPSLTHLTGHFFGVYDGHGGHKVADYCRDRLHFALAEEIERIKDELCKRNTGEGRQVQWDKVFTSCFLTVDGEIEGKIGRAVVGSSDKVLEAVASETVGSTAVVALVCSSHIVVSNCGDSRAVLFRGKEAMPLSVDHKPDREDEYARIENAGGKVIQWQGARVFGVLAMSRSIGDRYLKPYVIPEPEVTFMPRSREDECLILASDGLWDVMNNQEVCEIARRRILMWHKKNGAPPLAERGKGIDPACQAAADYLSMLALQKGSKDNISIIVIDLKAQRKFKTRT

PYR1^DIAZI [2] = biological target: T3, PYR1^DIAZI; assay: Yeast transcriptional activation circuit Z4-PYR1/VP64-ΔN-HAB1, GFP reporter, PYR1^DIAZI; conditions: panel of six chemically similar organophosphates
PYR1^DIAZI-M = biological target: T4, PYR1^DIAZI-M (Arabidopsis thaliana, UniProt O49686, A160V/E8G/F108Y/F159G/H60P/L87M/M158V/N90S/V81Y); assay: ELISA-like plate assay, immobilized PYR1^DIAZI-M, biotinylated ΔN-HAB1^T+; type: binding; conditions: tested at 20 μM, ELISA-format
T4 construct: made in house
T4 sequence (O49686 with tags, fused parts or gaps E8G/H60P/V81Y/L87M/N90S/F108Y/M158V/F159G/A160V): T1 sequence (O49686 with tags, fused parts or gaps E8G/V81Y/L87M/F108Y/M158V/F159G/A160V) with H60P, N90S

## CCOP(=S)(OCC)Oc1cc(C)nc(C(C)C)n1 [Diazinon, diazinon]
PYR1^DIAZI / HAB1
  EC50: 0.036 µM
PYR1^PIRI / HAB1
  ligand concentrations required for activation of PYR1^PIRI above background: high-nanomolar to low-micromolar
PYR1^DIAZI [1]
  EC50: 0.024 µM
PYR1^DIAZI [2]
  PYR1^DIAZI EC50 to on-target ligand relative to other organophosphates: greater than tenfold lower than all other molecules profiled
PYR1^DIAZI-M
  discrimination of on-target ligand from other organophosphates by PYR1^DIAZI: good discrimination
